Measured values taken from patent US8124626B2, “Methods of treating inflammations and infections with pyridinium salts” (Mycosol, Inc., priority 2007, dated 2012).

Columns and labels:
Streptococcus pyogenes = details: Mueller-Hinton agar, 24 hours at 35° C.
Streptococcus faecalis = details: Mueller-Hinton agar, 24 hours at 35° C.
Streptococcus algalactia = details: Mueller-Hinton agar, 24 hours at 35° C.
Staphylococcus aureus = details: Mueller-Hinton agar, 24 hours at 35° C.
Bordella bronchiseptica = details: Mueller-Hinton agar, 24 hours at 35° C.
Vibrio cholerae = details: Mueller-Hinton agar, 24 hours at 35° C.
Pasturella multocida = details: Mueller-Hinton agar, 24 hours at 35° C.
E. coli = details: Mueller-Hinton agar, 24 hours at 35° C.
Pseudomonas aerugenosa = details: Mueller-Hinton agar, 24 hours at 35° C.
Candida albicans = details: Mueller-Hinton agar, 24 hours at 35° C.
Candida tropicalis = details: Mueller-Hinton agar, 24 hours at 35° C.
Cryptococcus neoformans = details: Mueller-Hinton agar, 24 hours at 35° C.
Saccharomyces cervisciae = details: Mueller-Hinton agar, 24 hours at 35° C.
Aspergillus fumigatus = details: Mueller-Hinton agar, 24 hours at 35° C.
Aspergillus flavus = details: Mueller-Hinton agar, 24 hours at 35° C.
Fusarium solani = details: Mueller-Hinton agar, 24 hours at 35° C.
Rhizopus arrihizus = details: Mueller-Hinton agar, 24 hours at 35° C.
Microsporidium canis = details: Mueller-Hinton agar, 24 hours at 35° C.
Microsporidium gypseum = details: Mueller-Hinton agar, 24 hours at 35° C.
Trichophyton equinium = details: Mueller-Hinton agar, 24 hours at 35° C.
[1] = test system: Trichophyton mentagrophyt; details: Mueller-Hinton agar, 24 hours at 35° C.
Trichophyton rubrum = details: Mueller-Hinton agar, 24 hours at 35° C.
Epidermophyton floccsum = details: Mueller-Hinton agar, 24 hours at 35° C.
[2] = as compared to the iodide salt
Botrytis cinerea = test: Plant relevant mold panel, microtiter growth inhibition; format: cell-based; details: Plant relevance: Vegetable; 18° C. for 7 days, optical density 405 nm
[3] = test system: Colletotrichum lagenarium; test: as above; format: cell-based; details: Plant relevance: Mellons; 18° C. for 7 days, optical density 405 nm
Pyrenophora teres = test: as above; format: cell-based; details: Plant relevance: Barley; 18° C. for 7 days, optical density 405 nm
Rhizoctonia solani = test: as above; format: cell-based; details: Plant relevance: Rice Sheath; 18° C. for 7 days, optical density 405 nm
Septonia tritici = test: as above; format: cell-based; details: Plant relevance: Wheat Leaf; 18° C. for 7 days, optical density 405 nm
Phytophthora infestans = details: Plant relevance: Tomato; 18° C. for 7 days, optical density 405 nm
Pyricularia oryzae = details: Plant relevance: Rice; 18° C. for 7 days, optical density 405 nm
[4] = test system: roundworms, threadworms, and whipworms; details: reported; U.S. Pat. No. 3,075,975 and 3,085,935; cited from earlier work

## 1-Ethyl-(E,E)-2,6-bis[2-[4-(pyrrolidinyl)phenyl]ethenyl]pyridinium Chloride [formula I]
Streptococcus pyogenes
  MIC: 1.0 µg/mL
Streptococcus faecalis
  MIC: 1.0 µg/mL
Streptococcus algalactia
  MIC: 1.0 µg/mL
Staphylococcus aureus
  MIC: 0.3 µg/mL
Bordella bronchiseptica
  MIC: 1.0 µg/mL
Vibrio cholerae
  MIC: 10.0 µg/mL
Pasturella multocida
  MIC: 3.0 µg/mL
E. coli
  MIC: >100 µg/mL
Pseudomonas aerugenosa
  MIC: >100 µg/mL
Candida albicans
  MIC: <0.006 µg/mL
Candida tropicalis
  MIC: <0.4 µg/mL
Cryptococcus neoformans
  MIC: <0.4 µg/mL
Saccharomyces cervisciae
  MIC: <0.4 µg/mL
Aspergillus fumigatus
  MIC: <0.006 µg/mL
Aspergillus flavus
  MIC: 6.25 µg/mL
Fusarium solani
  MIC: <0.4 µg/mL
Rhizopus arrihizus
  MIC: 6.25 µg/mL
Microsporidium canis
  MIC: 1.6 µg/mL
Microsporidium gypseum
  MIC: 1.6 µg/mL
Trichophyton equinium
  MIC: 1.6 µg/mL
[1]
  MIC: 1.6 µg/mL
Trichophyton rubrum
  MIC: 1.6 µg/mL
Epidermophyton floccsum
  MIC: 1.6 µg/mL
[2]
  stability: increased stability

## CC[n+]1c(/C=C/c2ccc(N3CCCC3)cc2)cccc1/C=C/c1ccc(N2CCCC2)cc1.[I-] [Stilbazium iodide]
Botrytis cinerea
  IC90: 0.5 ppm a.i.
[3]
  IC90: 31 ppm a.i.
Pyrenophora teres
  IC90: 31 ppm a.i.
Rhizoctonia solani
  IC90: 2 ppm a.i.
Septonia tritici
  IC90: 2 ppm a.i.
Phytophthora infestans
  IC90: 2 ppm a.i.
Pyricularia oryzae
  IC90: 8 ppm a.i.
[4]
  anthelmintic effectiveness: effective against roundworms, threadworms, and whipworms
